Data: the supplement of paper PMC10307832

Assays:
Assay in all cases: relative viability (nuclei count vs DMSO), 5 days (fraction); higher = more cells survive
[1] = compound: COc1cc2ncn(-c3cc(OCc4ccccc4C(F)(F)F)c(C(N)=O)s3)c2cc1OC + C[C@@H](Oc1cc(-c2cnn(C3CCNCC3)c2)cnc1N)c1c(Cl)ccc(F)c1Cl [Crizotinib] (partner 1 µM)
Summary of the method: (§1)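 Each reported value is a median over duplicate plates. It expresses relative viability: treated-well nuclei count divided by vehicle-well nuclei count. Lung cancer cell lines in 1536-well plates were dosed by pin tool a day after seeding, alone with one drug or with a fixed anchor-drug dose plus five library-drug doses (not always all listed) in √10 steps, and nuclei were counted after 5 days.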

[2] = compound: COc1cc2ncn(-c3cc(OCc4ccccc4C(F)(F)F)c(C(N)=O)s3)c2cc1OC + N=C(N)NC(=N)NCCc1ccccc1 [Phenformin] (partner 250 µM)
Summary of the method: as §1

[3] = compound: COc1cc2ncn(-c3cc(OCc4ccccc4C(F)(F)F)c(C(N)=O)s3)c2cc1OC + CC1(C)CCC(c2ccc(Cl)cc2)=C(CN2CCN(c3ccc(C(=O)NS(=O)(=O)c4ccc(N[C@H](CCN5CCOCC5)CSc5ccccc5)c(S(=O)(=O)C(F)(F)F)c4)cc3)CC2)C1 [Navitoclax] (partner 0.5 µM)
Summary of the method: as §1

[4] = compound: COc1cc2ncn(-c3cc(OCc4ccccc4C(F)(F)F)c(C(N)=O)s3)c2cc1OC + Nc1ncn([C@H]2C[C@H](O)[C@@H](CO)O2)c(=O)n1 [Decitabine] (partner 2 µM)
Summary of the method: as §1

| Cell Line | relative viability ([1]; first compound 0.05 µM) | relative viability ([1]; first compound 0.1581 µM) | relative viability ([1]; first compound 0.5 µM) | relative viability ([1]; first compound 1.581 µM) | relative viability ([1]; first compound 5 µM) | relative viability ([2]; first compound 0.05 µM) | relative viability ([2]; first compound 0.1581 µM) | relative viability ([2]; first compound 0.5 µM) | relative viability ([2]; first compound 1.581 µM) | relative viability ([2]; first compound 5 µM) | relative viability ([3]; first compound 0.05 µM) | relative viability ([3]; first compound 0.1581 µM) | relative viability ([3]; first compound 0.5 µM) | relative viability ([3]; first compound 1.581 µM) | relative viability ([3]; first compound 5 µM) | relative viability ([4]; first compound 0.05 µM) | relative viability ([4]; first compound 0.1581 µM) | relative viability ([4]; first compound 0.5 µM) | relative viability ([4]; first compound 1.581 µM) | relative viability ([4]; first compound 5 µM) |
| --- | --- | --- | --- | --- | --- | --- | --- | --- | --- | --- | --- | --- | --- | --- | --- | --- | --- | --- | --- | --- |
| NCI-H2085 | 0.842 | 0.848 | 0.629 | 0.517 | 0.309 | 0.719 | 0.725 | 0.367 | 0.234 | 0.251 | 1.2 | 1.09 | 0.593 | 0.367 | 0.365 | 0.508 | 0.502 | 0.431 | 0.36 | 0.363 |
| NCI-H2087 | 0.934 | 0.793 | 0.32 | 0.18 | 0.139 | 0.51 | 0.458 | 0.269 | 0.111 | 0.107 | 1.04 | 0.974 | 0.194 | 0.136 | 0.134 | 0.317 | 0.227 | 0.152 | 0.0875 | 0.106 |
| NCI-H2126 | 1.05 | 1 | 0.849 | 0.419 | 0.264 | 0.481 | 0.579 | 0.367 | 0.265 | 0.261 | 0.856 | 0.834 | 0.662 | 0.284 | 0.225 | 0.571 | 0.605 | 0.556 | 0.261 | 0.227 |
| NCI-H2170 | 1.25 | 1.15 | 0.599 | 0.268 | 0.258 | 0.444 | 0.351 | 0.32 | 0.195 | 0.179 | 0.539 | 0.492 | 0.202 | 0.168 | 0.162 | 0.49 | 0.458 | 0.285 | 0.151 | 0.166 |
| NCI-H2347 | 0.58 | 0.736 | 0.603 | 0.537 | 0.385 | 0.361 | 0.374 | 0.493 | 0.353 | 0.277 | 0.78 | 1.01 | 0.566 | 0.38 | 0.579 | 0.556 | 0.589 | 0.531 | 0.499 | 0.482 |
| NCI-H2405 | 0.84 | 0.682 | 0.595 | 0.357 | 0.463 | 0.437 | 0.274 | 0.29 | 0.322 | 0.246 | 0.931 | 0.69 | 0.16 | 0.0992 | 0.0957 | 0.754 | 0.704 | 0.506 | 0.373 | 0.324 |
| NCI-H3122 | 0.245 | 0.288 | 0.23 | 0.186 | 0.173 | 0.362 | 0.37 | 0.16 | 0.143 | 0.128 | 1.05 | 1.01 | 0.212 | 0.189 | 0.202 | 0.373 | 0.426 | 0.193 | 0.14 | 0.103 |
| PC-3 [JPC-3] | 0.987 | 1.01 | 0.778 | 0.34 | 0.27 | 0.494 | 0.501 | 0.381 | 0.184 | 0.187 | 0.757 | 0.715 | 0.471 | 0.27 | 0.238 | 0.779 | 0.842 | 0.653 | 0.396 | 0.43 |
| PC-14 | 0.83 | 0.828 | 0.564 |  | 0.411 | 0.501 | 0.561 | 0.465 | 0.119 | 0.0948 | 1.03 | 0.97 | 0.407 | 0.151 | 0.273 | 0.272 | 0.195 | 0.141 | 0.0475 | 0.0694 |
| RERF-LC-KJ | 0.813 | 0.887 | 0.766 |  | 0.545 | 0.376 | 0.396 | 0.229 | 0.272 | 0.259 | 0.993 | 0.874 | 0.416 | 0.23 | 0.414 | 0.802 | 0.633 | 0.27 | 0.198 | 0.25 |
| SK-LU-1 | 0.935 | 0.832 | 0.411 | 0.296 | 0.313 | 0.563 | 0.519 | 0.216 | 0.163 | 0.15 | 0.641 | 0.56 | 0.794 | 0.123 | 0.113 | 0.663 | 0.487 | 0.494 | 0.317 | 0.304 |
| SK-MES-1 | 0.971 | 0.861 | 0.627 |  | 0.476 | 0.559 | 0.636 | 0.234 | 0.197 | 0.121 | 1.14 | 1.25 | 0.519 | 0.119 | 0.127 | 0.371 | 0.393 | 0.273 | 0.166 | 0.172 |
| SW 1573 | 0.786 | 0.859 | 0.514 | 0.134 | 0.293 | 0.232 | 0.413 | 0.143 | 0.103 | 0.0927 | 1.06 | 1.09 | 0.466 | 0.115 | 0.0609 | 0.572 | 0.413 | 0.223 | 0.0976 | 0.126 |
| UMC-11 | 0.627 | 0.484 | 0.141 | 0.0823 | 0.102 | 0.271 | 0.201 | 0.158 | 0.173 | 0.168 | 0.312 | 0.269 | 0.113 | 0.0962 | 0.094 | 0.309 | 0.595 | 0.265 | 0.253 | 0.251 |
